Data taken from PubChem BioAssay (NCI).
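Results reflect a 48-hour exposure of cells in 96-well plates to compound at five concentrations. At the TGI there is no net growth.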

How the values were obtained:
Experiment in all cases: growth of human tumour cells (NCI), 48 h
SNB-78 CNS = tested on: SNB-78 CNS
DMS 114 small cell lung = tested on: DMS 114 small cell lung
HOP-18 NSCLC = tested on: HOP-18 NSCLC
NCI-H460 lung = tested on: NCI-H460 lung
KM20L2 colon = tested on: KM20L2 colon
RXF-631 renal = tested on: RXF-631 renal
LXFL 529 NSCLC = tested on: LXFL 529 NSCLC
DMS 273 small cell lung = tested on: DMS 273 small cell lung
M19-MEL melanoma = tested on: M19-MEL melanoma
DLD-1 colon = tested on: DLD-1 colon
XF 498 CNS = tested on: XF 498 CNS

## Cc1ccc(-c2cc(-c3ccccc3)c(C#N)c(=O)[nH]2)cc1
SNB-78 CNS
  TGI: > 100 µM
DMS 114 small cell lung
  TGI: > 100 µM
HOP-18 NSCLC
  TGI: > 100 µM
NCI-H460 lung
  TGI: > 100 µM
KM20L2 colon
  TGI: > 100 µM
RXF-631 renal
  TGI: > 100 µM
LXFL 529 NSCLC
  TGI: > 100 µM
DMS 273 small cell lung
  TGI: > 100 µM
M19-MEL melanoma
  TGI: > 100 µM
DLD-1 colon
  TGI: > 100 µM

## COc1cc([C@@H]2c3cc4c(cc3[C@@H](Nc3ccc(Cl)cc3C(=O)c3ccccc3)[C@H]3COC(=O)[C@H]23)OCO4)cc(OC)c1OC
NCI-H460 lung
  TGI: > 100 µM

## CCOC(=O)C1=C(OC(OCC)C(CC)[Se]c2ccccc2)CCC1 (stereo unspecified)
SNB-78 CNS
  TGI: 97.4 µM
DMS 114 small cell lung
  TGI: 15.6 µM
HOP-18 NSCLC
  TGI: 69.5 µM
NCI-H460 lung
  TGI: > 100 µM
KM20L2 colon
  TGI: > 100 µM
XF 498 CNS
  TGI: 46.8 µM
RXF-631 renal
  TGI: 32.9 µM
LXFL 529 NSCLC
  TGI: 77 µM
DMS 273 small cell lung
  TGI: 29.2 µM
M19-MEL melanoma
  TGI: 30.8 µM
DLD-1 colon
  TGI: 45.4 µM

## CCCc1nc2c(n1CC)C(=O)c1ccccc1C2=O
NCI-H460 lung
  TGI: > 100 µM

## COC(=O)/C=C/[C@@H]1[C@H](C)N1S(=O)(=O)c1ccc(C)cc1 (stereo partly specified)
NCI-H460 lung
  TGI: > 100 µM

## COc1cc([C@@H]2c3cc4c(cc3[C@@H](NCc3cccc(C#N)c3)C3COC(=O)[C@@H]32)OCO4)cc(OC)c1O (stereo partly specified)
DMS 114 small cell lung
  TGI: 9.19 µM
HOP-18 NSCLC
  TGI: > 100 µM
NCI-H460 lung
  TGI: 2.09 µM
KM20L2 colon
  TGI: 4.63 µM
RXF-631 renal
  TGI: 4.64 µM
LXFL 529 NSCLC
  TGI: > 100 µM
DMS 273 small cell lung
  TGI: 5.89 µM
M19-MEL melanoma
  TGI: 50.3 µM
DLD-1 colon
  TGI: 12.7 µM

## O=[N+]([O-])c1ccc(-c2nn3c(C45CC6CC(CC(C6)C4)C5)nnc3s2)c(Cl)c1
NCI-H460 lung
  TGI: > 100 µM

## CCOP(=O)(O)C(Nc1ccc(N=Nc2ccccc2)cc1)c1cccc(C(Nc2ccc(N=Nc3ccccc3)cc2)P(=O)(O)OCC)c1 (stereo unspecified)
NCI-H460 lung
  TGI: > 100 µM

## O=[N+]([O-])c1cccc(Nc2nc(Cl)nc(Cl)n2)c1
SNB-78 CNS
  TGI: > 100 µM
NCI-H460 lung
  TGI: > 100 µM
KM20L2 colon
  TGI: > 100 µM
XF 498 CNS
  TGI: > 100 µM
RXF-631 renal
  TGI: > 100 µM
LXFL 529 NSCLC
  TGI: > 100 µM
DMS 273 small cell lung
  TGI: > 100 µM
M19-MEL melanoma
  TGI: > 100 µM
DLD-1 colon
  TGI: > 100 µM

## O=[N+]([O-])c1cccc2nccc(NCCN3CCOCC3)c12
NCI-H460 lung
  TGI: 32.5 µM

## COc1ccccc1N/C(SCc1ccccc1)=C(/C(Cl)=C(Cl)Cl)[N+](=O)[O-]
NCI-H460 lung
  TGI: > 100 µM

## COC(=O)/C=C(\C)CCC1SC1(C)C (stereo unspecified)
SNB-78 CNS
  TGI: > 100 µM
DMS 114 small cell lung
  TGI: > 100 µM
HOP-18 NSCLC
  TGI: > 100 µM
NCI-H460 lung
  TGI: > 100 µM
KM20L2 colon
  TGI: > 100 µM
XF 498 CNS
  TGI: > 100 µM
LXFL 529 NSCLC
  TGI: > 100 µM
DMS 273 small cell lung
  TGI: > 100 µM
M19-MEL melanoma
  TGI: > 100 µM
DLD-1 colon
  TGI: > 100 µM

## O=C1NC2(CCNCC2)Oc2ccccc21
NCI-H460 lung
  TGI: > 100 µM

## CC(=O)/C(=C\I)c1ccccc1
NCI-H460 lung
  TGI: 24.7 µM

## CC(C)(C)OC(=O)N1CCCC1C(=O)NC(c1ccccc1)c1ccccc1 (stereo unspecified)
NCI-H460 lung
  TGI: > 100 µM

## O=[N+]1[C@H](c2ccccc2)[C@H](c2ccccc2)N1[O-]
NCI-H460 lung
  TGI: 43.2 µM

## COc1ccc2nc3ccc(OC)cc3c(SCCCl)c2c1
NCI-H460 lung
  TGI: > 100 µM

## CCOC(=O)C(=CNc1ccc(F)c(F)c1)C(=O)OCC
NCI-H460 lung
  TGI: > 100 µM

## O=C1Oc2ccccc2C(=O)/C1=C/N1C(=O)CNC1=S
NCI-H460 lung
  TGI: > 100 µM

## O=C1OC([C@H](O)c2cccnc2)c2ccccc21 (stereo partly specified)
NCI-H460 lung
  TGI: > 10 µM

## CC(=O)N1C(Nc2nccs2)CCN1c1ccccc1 (stereo unspecified)
NCI-H460 lung
  TGI: > 10 µM

## O=c1c(Sc2c(SCSc3cnc4ccccc4c3Sc3c[nH]c4ccccc4c3=O)cnc3ccccc23)c[nH]c2ccccc12
NCI-H460 lung
  TGI: > 100 µM

## COC(=O)[C@@](NC(=O)OCc1ccccc1)([C@H](C)O)C(F)(F)F
NCI-H460 lung
  TGI: > 100 µM

## CCOC(=O)CCC(NC(=O)c1ccc(NC(OC)c2nc3cc(C(F)(F)F)ccc3nc2-c2ccccc2)cc1)C(=O)OCC (stereo unspecified)
SNB-78 CNS
  TGI: 37.3 µM
DMS 114 small cell lung
  TGI: 30.7 µM
HOP-18 NSCLC
  TGI: 44.5 µM
NCI-H460 lung
  TGI: 26.2 µM
KM20L2 colon
  TGI: 27.2 µM
RXF-631 renal
  TGI: 29.2 µM
LXFL 529 NSCLC
  TGI: 20.3 µM
DMS 273 small cell lung
  TGI: 21 µM
M19-MEL melanoma
  TGI: 29.2 µM
DLD-1 colon
  TGI: 24.1 µM

## COc1cc(OC)c2c(=O)c3cccc(C)c3n(C)c2c1
NCI-H460 lung
  TGI: > 100 µM

## O=C(NCCNCCNC(=O)c1cc(-c2ccccc2)nc2ccccc12)c1cc(-c2ccccc2)nc2ccccc12
NCI-H460 lung
  TGI: 2.97 µM

## COC(=O)C(=O)Nc1cc2c3c(c1)Oc1cccc4c1C3(C)c1c(cccc1O2)O4
NCI-H460 lung
  TGI: > 100 µM

## CN(C)CCN1CCc2c([nH]c3ccccc23)C1c1cccnc1 (stereo unspecified)
SNB-78 CNS
  TGI: > 100 µM
DMS 114 small cell lung
  TGI: > 100 µM
HOP-18 NSCLC
  TGI: > 100 µM
NCI-H460 lung
  TGI: > 100 µM
KM20L2 colon
  TGI: > 100 µM
DMS 273 small cell lung
  TGI: > 100 µM
M19-MEL melanoma
  TGI: > 100 µM
DLD-1 colon
  TGI: > 100 µM

## CSc1nc(=O)cnn1C
NCI-H460 lung
  TGI: > 100 µM

## CC(=O)Nc1cccc(N2C(=O)/C(=C\c3cccc(Oc4ccccc4)c3)SC2c2ccccc2)c1 (stereo unspecified)
NCI-H460 lung
  TGI: > 100 µM

## Cc1nn(C(=O)c2ccncc2)c2c1C(c1ccccc1[N+](=O)[O-])SC(N)=N2 (stereo unspecified)
NCI-H460 lung
  TGI: > 10 µM

## Cc1c(/C=N/NC(=S)N2CCCCC2)c(=O)n(-c2ccccc2)n1C
NCI-H460 lung
  TGI: > 100 µM

## Cc1cn(C2CC(N=[N+]=[N-])C(COP(=O)(O)OCC3OC(n4cc(F)c(=O)[nH]c4=O)CC3O)O2)c(=O)[nH]c1=O (stereo unspecified)
NCI-H460 lung
  TGI: > 100 µM

## O=C1NCN(c2ccccc2)C12CCN(CC1COc3ccccc3O1)CC2 (stereo unspecified)
NCI-H460 lung
  TGI: > 100 µM

## CCCCCCCCCCCCCCCCNC(=O)/C(=C\c1ccc(Cl)c(Cl)c1)NC(=O)c1ccccc1
NCI-H460 lung
  TGI: > 100 µM

## C=CCN1CCC(c2cc(C(=O)OCC)[nH]c2-c2cc(C)no2)C1=O (stereo unspecified)
NCI-H460 lung
  TGI: > 100 µM

## O=C(O)CSc1n[nH]c(-c2ccco2)n1
SNB-78 CNS
  TGI: > 100 µM
NCI-H460 lung
  TGI: > 100 µM
KM20L2 colon
  TGI: > 100 µM
XF 498 CNS
  TGI: > 100 µM
RXF-631 renal
  TGI: > 100 µM
LXFL 529 NSCLC
  TGI: > 100 µM
DMS 273 small cell lung
  TGI: > 100 µM
M19-MEL melanoma
  TGI: > 100 µM
DLD-1 colon
  TGI: > 100 µM

## CCOc1ccc(NC(=O)C(=O)Nn2c(N)nnc2N)cc1
NCI-H460 lung
  TGI: > 100 µM
